Assay [1] has as its target T1, rCL-11 (recombinant collectin-11, CL-11, CL-K1) (Homo sapiens, UniProt Q9BWP8).
T1 construct: gene COLEC11; no tag stated; homomeric disulfide-linked oligomers of trimers, monomer ~34 kDa reduced
The assay is described as follows: co-precipitation with D-mannose-agarose (western blot) and solid-phase binding to coated D-mannose-BSA. Particulars: Ca2+ required (no binding in EDTA or Mg-EGTA); D-mannose presented as immobilised agarose or BSA conjugate; room temperature. (A western blot detects proteins with antibodies after separation by electrophoresis.)

In assay [2] the target is T1, rCL-11 (recombinant collectin-11, CL-11, CL-K1). Briefly: solid-phase competition ELISA, inhibition of rCL-11 binding to coated mannan. The note with it: Ca2+ (TBS-Tw-Ca, 2.5 mM CaCl2), rCL-11 1 ug/ml, mannan-coated plate, room temperature.

T1 sequence (Q9BWP8 26-271): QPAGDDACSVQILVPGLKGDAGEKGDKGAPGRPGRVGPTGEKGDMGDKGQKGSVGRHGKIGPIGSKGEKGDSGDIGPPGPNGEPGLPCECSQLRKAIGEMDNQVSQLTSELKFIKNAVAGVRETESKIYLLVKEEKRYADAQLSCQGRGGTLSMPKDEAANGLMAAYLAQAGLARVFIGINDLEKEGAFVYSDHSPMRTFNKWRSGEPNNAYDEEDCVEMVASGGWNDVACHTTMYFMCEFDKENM

Take `OC[C@H]1OC(O)[C@@H](O)[C@@H](O)[C@@H]1O` (stereo partly drawn) [D-mannose]: the “co-precipitation with D-mannose-agarose (western blot) and solid-phase binding t” value in assay [1] was “bound to D-mannose and mannan in the presence of calcium”.
Take `C[C@@H]1OC(O)[C@@H](O)[C@H](O)[C@@H]1O` (stereo partly drawn) [L-fucose]: the IC50 in assay [2] is 36.5 mM.

The term IC50 denotes the point on the concentration scale where inhibition reaches its midpoint.

These data come from article PMC6172411, “Development of a Quantitative Assay for the Characterization of Human Collectin-11 (CL-11, CL-K1)” (Frontiers in Immunology, 2018).
